# Where two headings read alike, the source gives them in different places.
# Experiments:
# MCF7 cells = experiment: Antiproliferative activity, MTT test; assay type: cell-based; settings: Homo sapiens, MTT assay after 72 h exposure
# Experimental: A series of synthesized indoline-5-sulfonamides was tested on the MCF7 cancer cell line under normoxia and hypoxia using the MTT test.
# The MDR subline K562/4 [77] (kind gift of Dr. Alexander Shtil, Blokhin N.N. National Medical Research Center of Oncology) was obtained by stepwise selection of K562 cells for survival under continuous exposure to Dox. This subline expresses the MDR1 gene and functional P-gp and is characterized by a high resistance index for Dox. […] Cells in the logarithmic phase of growth were used in the experiments. The growth inhibitory activity of compounds was assessed by the MTT test based on the metabolism of the MTT reagent (3-[4,5-dimethylthiazol-2-yl]-2,5-diphenyltetrazolium bromide) (Applichem) in living cells, with modifications as described previously in [49]. Compounds at different concentrations in 100 μL of the appropriate medium were added, and the cells were grown for 72 h. The hypoxia (1% O2) conditions were simulated in Binder multigas incubator, as described in [49]. After incubation with compounds, the medium was removed, the MTT reagent that was dissolved in the medium was added to the final concentration of 0.2 mg/mL to each well, and the incubation was performed for 2 h. Then the cell supernatants were removed, and purple formazan crystals were dissolved in 100% DMSO (350 μL per well). Culture plates were gently shaken, and the absorbance was measured at 571 nm with a reference wavelength of 630 nm on a MultiScan reader (ThermoFisher, Waltham, MA, USA). The viability of the cells was expressed as a percentage of the control. Dose-response curves were analyzed by regression analysis using sigmoid curves (Log(concentration) vs. normalized absorbance).
# All results were reported as means ± SD. One-way analysis of variance was used for the analysis of data. Differences were defined as significant at p < 0.05. GraphPad Prism7 (GraphPad Software, San Diego, CA, USA) was used for the determination of the half-maximal inhibitory concentration (IC50) values.
# CA IX = experiment: Immunoblotting of hypoxia-induced protein expression in A431 cells; assay type: cell-based, human; settings: hypoxia 24 h
# Experimental: (§1) We wondered whether compound 4f affected CA IX expression or whether its activity was limited to inhibiting the enzyme activity reported above (Table 1). To induce CA IX expression, cells were placed in hypoxia for 24 h, and then protein expression was analyzed by immunoblotting. Because the data on the expression of hypoxia-related proteins in the literature are highly inconsistent, we introduced additional controls. Antibodies to hypoxia-regulated and “non-hypoxic” proteins were used. The expression of kinase Akt, which is not regulated directly by hypoxia/HIF-1α, was not altered under hypoxia conditions (Figure 5F). […] Thus, lead compound 4f not only blocks the enzyme activity of CA IX, but also causes partial inhibition of hypoxia-induced CA IX expression in skin cancer cells.
# (§2) A431 cells were seeded on 100 mm dishes (Corning, Corning, NY, USA), and after 24 h growth, the compound 4f was added to a fresh medium. To prepare cell extracts, A431 cells were twice washed in phosphate buffer and incubated for 10 min on ice in the modified lysis buffer containing 50 mM Tris-HCl, pH 7.5, 0.5% Igepal CA-630, 150 mM NaCl, 1 mM EDTA, 1 mM DTT, 1 mM PMSF, 0.1 mM sodium orthovanadate and aprotinin, leupeptin and pepstatin (1 µg/mL each) as described earlier in the work. The protein content was determined by the Bradford method.
# (§3) A431 cell lysates were separated in 10% SDS-PAGE under reducing conditions, transferred to a nitrocellulose membrane (GE HealthCare, Chicago, IL, USA), and processed according to a standard protocol. Akt, GLUT1, PD-L1, and CA IX antibodies were obtained from Cell Signaling Technology (Danvers, MA, USA); the antibodies against GAPDH (Cell Signaling Technology) were added to standardize loading. Goat anti-rabbit IgGs (Jackson ImmunoResearch, West Grove, PA, USA) conjugated to horseradish peroxidase were used as secondary antibodies. Signals were detected using the ECL reagent as described in Mruk and Cheng’s protocol and an ImageQuant LAS4000 system (GE HealthCare).
# GLUT1 = experiment: as above; assay type: cell-based, human; settings: hypoxia 24 h
# Experimental: as §1, §2, §3
# PD-L1 = experiment: as above; assay type: cell-based, human; settings: hypoxia 24 h
# Experimental: as §1, §2, §3
smiles,measurement,setting,value
"NS(=O)(=O)c1ccc2c(c1)CCN2C(=O)c1cccc(Cl)c1 [Compound 4f, 1-(3-Chlorobenzoyl)indoline-5-sulfonamide]",IC50,"MCF7 cells; hypoxia (1% O2), read-out: IC50 against MCF7 Cells, Hypoxia",12.9 ± 1.2 µM
same,IC50,"MCF7 cells; normoxia, read-out: IC50 against MCF7 Cells, Normoxia",24.5 ± 1.9 µM
same,CA IX expression in A431 cells,CA IX,moderate decrease
same,GLUT1 expression in A431 cells,GLUT1,did not change
same,PD-L1 expression in A431 cells,PD-L1,did not change
